Measured values from US11400085B2, “Method for preparing pharmaceutical composition for preventing or treating cognitive impairment-related disease and pharmaceutical composition for preventing or treating cognitive impairment-related disease prepared by the same” (priority 2018, dated 2022).

Experiment: Comparison of blood concentrations of donepezil after injection or oral administration
Type: in vivo
Conditions: beagle dog, orally administered

Substance: donepezil
- blood concentration duration: very short for about one day
